Source: PMC5218480 (PLoS ONE, 2017)

System: MV-4-11 cells
Test: Gene expression microarray analysis (Affymetrix PrimeView) and GSEA
Format: cell-based, human
Design: RFU PODN (11730768_x_at) / Fold change /veh PODN (11730768_x_at) / RFU LINC00158 (11744669_a_at) / Fold change /veh LINC00158 (11744669_a_at) / RFU DUSP10 (11751237_a_at) / Fold change /veh DUSP10 (11751237_a_at) / RFU ID3 (11757404_x_at) / Fold change /veh ID3 (11757404_x_at) / RFU PLEKHG5 (11737974_s_at) / Fold change /veh PLEKHG5 (11737974_s_at) / RFU LRRC4B (11730491_at) / Fold change /veh LRRC4B (11730491_at) / RFU GIMAP4 (11747438_a_at) / Fold change /veh GIMAP4 (11747438_a_at) / RFU KRT8 (11758183_x_at) / Fold change /veh KRT8 (11758183_x_at) / RFU CNN1 (11734310_a_at) / Fold change /veh CNN1 (11734310_a_at) / RFU VPS37D (11726825_at) / Fold change /veh VPS37D (11726825_at) / RFU C10orf10 (11716522_x_at) / Fold change /veh C10orf10 (11716522_x_at) / RFU KIR2DL2 /// KIR2DL4 /// KIR2DL5A /// KIR2DL5B /// KIR2DS1 /// KIR2DS2 /// KIR2DS3 /// KIR2DS4 /// KIR3DL3 /// KIR3DL3 /// KIR3DS1 (11738374_at) / Fold change /veh KIR2DL2 /// KIR2DL4 /// KIR2DL5A /// KIR2DL5B /// KIR2DS1 /// KIR2DS2 /// KIR2DS3 /// KIR2DS4 /// KIR3DL3 /// KIR3DL3 /// KIR3DS1 (11738374_at) / RFU C1QL1 (11718748_at) / Fold change /veh C1QL1 (11718748_at) / RFU TMPRSS4 (11747572_a_at) / Fold change /veh TMPRSS4 (11747572_a_at) / RFU HAMP (11756126_x_at) / Fold change /veh HAMP (11756126_x_at) / RFU RNFT2 (11725882_a_at) / Fold change /veh RNFT2 (11725882_a_at) / RFU NR4A2 (11747474_a_at) / Fold change /veh NR4A2 (11747474_a_at) / RFU ABCC12 (11746883_a_at) / Fold change /veh ABCC12 (11746883_a_at) / RFU TMEM136 (11760407_x_at) / Fold change /veh TMEM136 (11760407_x_at) / RFU CLDN22 /// WWC2 (11732394_at) / Fold change /veh CLDN22 /// WWC2 (11732394_at) / RFU HLA-DPB1 (11760878_x_at) / Fold change /veh HLA-DPB1 (11760878_x_at) / RFU SPINT1 (11716480_a_at) / Fold change /veh SPINT1 (11716480_a_at) / RFU GAP43 (11754022_s_at) / Fold change /veh GAP43 (11754022_s_at) / RFU A4GNT (11735810_at) / Fold change /veh A4GNT (11735810_at) / RFU PRB3 (11715151_x_at) / Fold change /veh PRB3 (11715151_x_at) / RFU TUBB4B (11761932_at) / Fold change /veh TUBB4B (11761932_at) / RFU CAPN14 (11732068_a_at) / Fold change /veh CAPN14 (11732068_a_at) / RFU TMCC2 (11721928_a_at) / Fold change /veh TMCC2 (11721928_a_at) / RFU IRGQ (11745062_a_at) / Fold change /veh IRGQ (11745062_a_at) / RFU FAM174B (11720279_a_at) / Fold change /veh FAM174B (11720279_a_at) / RFU TMPRSS4 (11748680_a_at) / Fold change /veh TMPRSS4 (11748680_a_at) / RFU FAM212B (11763350_a_at) / Fold change /veh FAM212B (11763350_a_at) / RFU PLEKHG5 (11743358_a_at) / Fold change /veh PLEKHG5 (11743358_a_at) / RFU ZSCAN30 (11745921_a_at) / Fold change /veh ZSCAN30 (11745921_a_at) / RFU CMKLR1 (11741424_a_at) / Fold change /veh CMKLR1 (11741424_a_at) / RFU LOC101060620 /// MAPK8IP1 (11723275_at) / Fold change /veh LOC101060620 /// MAPK8IP1 (11723275_at) / RFU SPTSSB (11747773_x_at) / Fold change /veh SPTSSB (11747773_x_at) / RFU PRSS12 (11739890_at) / Fold change /veh PRSS12 (11739890_at) / RFU BIN1 (11741810_x_at) / Fold change /veh BIN1 (11741810_x_at) / RFU WNT11 (11732464_a_at) / Fold change /veh WNT11 (11732464_a_at) / RFU C10orf10 (11716521_a_at) / Fold change /veh C10orf10 (11716521_a_at) / RFU C5orf56 (11738089_at) / Fold change /veh C5orf56 (11738089_at) / RFU CYB561 (11721691_x_at) / Fold change /veh CYB561 (11721691_x_at) / RFU ANKRD19P (11752326_a_at) / Fold change /veh ANKRD19P (11752326_a_at) / RFU OR2T12 /// OR2T33 /// OR2T8 (11738714_s_at) / Fold change /veh OR2T12 /// OR2T33 /// OR2T8 (11738714_s_at) / RFU VCAN (11748164_a_at) / Fold change /veh VCAN (11748164_a_at) / RFU JSRP1 (11732532_at) / Fold change /veh JSRP1 (11732532_at) / RFU KRTAP10-11 (11738290_x_at) / Fold change /veh KRTAP10-11 (11738290_x_at) / RFU MYO3A (11730013_a_at) / Fold change /veh MYO3A (11730013_a_at) / RFU EBF3 (11725865_a_at) / Fold change /veh EBF3 (11725865_a_at) / RFU CAMK2N1 (11719241_x_at) / Fold change /veh CAMK2N1 (11719241_x_at) / RFU C5orf56 (11738088_a_at) / Fold change /veh C5orf56 (11738088_a_at) / RFU OLFML3 (11715873_a_at) / Fold change /veh OLFML3 (11715873_a_at) / RFU LOC100653217 /// NTM (11731650_a_at) / Fold change /veh LOC100653217 /// NTM (11731650_a_at) / RFU MAPK11 (11762145_a_at) / Fold change /veh MAPK11 (11762145_a_at) / RFU FIZ1 (11724087_x_at) / Fold change /veh FIZ1 (11724087_x_at) / RFU OASL (11726364_x_at) / Fold change /veh OASL (11726364_x_at) / RFU SOX15 (11748057_x_at) / Fold change /veh SOX15 (11748057_x_at) / RFU CD79A (11719716_a_at) / Fold change /veh CD79A (11719716_a_at) / RFU HIST1H1D (11736915_at) / Fold change /veh HIST1H1D (11736915_at) / RFU CASKIN2 (11723855_a_at) / Fold change /veh CASKIN2 (11723855_a_at) / RFU LOC730098 (11760151_x_at) / Fold change /veh LOC730098 (11760151_x_at) / RFU OR4N2 (11742367_at) / Fold change /veh OR4N2 (11742367_at) / RFU PRRT2 (11749266_a_at) / Fold change /veh PRRT2 (11749266_a_at) / RFU SNX32 (11753110_a_at) / Fold change /veh SNX32 (11753110_a_at) / RFU CDHR5 (11726645_a_at) / Fold change /veh CDHR5 (11726645_a_at) / RFU RCAN1 (11760418_a_at) / Fold change /veh RCAN1 (11760418_a_at) / RFU FAM167A (11723789_a_at) / Fold change /veh FAM167A (11723789_a_at) / RFU FAM26E (11764081_at) / Fold change /veh FAM26E (11764081_at) / RFU ISYNA1 (11749810_s_at) / Fold change /veh ISYNA1 (11749810_s_at) / RFU ACY1 (11761880_at) / Fold change /veh ACY1 (11761880_at) / RFU 11764098_at / Fold change /veh 11764098_at / RFU SAMD14 (11745864_x_at) / Fold change /veh SAMD14 (11745864_x_at) / RFU NPB (11741838_a_at) / Fold change /veh NPB (11741838_a_at) / RFU TMPRSS6 (11731388_a_at) / Fold change /veh TMPRSS6 (11731388_a_at) / RFU KRTAP10-2 (11738614_at) / Fold change /veh KRTAP10-2 (11738614_at) / RFU ARHGAP8 /// PRR5-ARHGAP8 (11727945_x_at) / Fold change /veh ARHGAP8 /// PRR5-ARHGAP8 (11727945_x_at) / RFU KRTAP5-7 /// NADSYN1 (11734609_at) / Fold change /veh KRTAP5-7 /// NADSYN1 (11734609_at) / RFU RASL12 (11751679_a_at) / Fold change /veh RASL12 (11751679_a_at) / RFU CDKN2B (11736163_a_at) / Fold change /veh CDKN2B (11736163_a_at) / RFU PRF1 (11729649_at) / Fold change /veh PRF1 (11729649_at) / RFU, ZNF638 /// ZNF638-IT1 / Fold change vs veh, ZNF638 /// ZNF638-IT1 / RFU, PANK3 / Fold change vs veh, PANK3 / RFU, SH3YL1 / Fold change vs veh, SH3YL1 / RFU, ZEB2 / Fold change vs veh, ZEB2 / RFU, NRIP1 / Fold change vs veh, NRIP1 / RFU, PTTG1IP / Fold change vs veh, PTTG1IP / RFU, CAPN2 / Fold change vs veh, CAPN2 / RFU, MED14 / Fold change vs veh, MED14 / RFU, SNORA58 / Fold change vs veh, SNORA58 / RFU, C1orf63 / Fold change vs veh, C1orf63 / RFU, LRRFIP1 / Fold change vs veh, LRRFIP1 / RFU, NDUFAF7 / Fold change vs veh, NDUFAF7 / RFU, SLC12A2 / Fold change vs veh, SLC12A2 / RFU, IBTK / Fold change vs veh, IBTK / RFU, ESF1 / Fold change vs veh, ESF1 / Fold change vs veh, TMEM50B / RFU, TAOK1 / Fold change vs veh, TAOK1 / RFU, ACBD3 / Fold change vs veh, ACBD3 / RFU, TMA16 / Fold change vs veh, TMA16 / RFU, RWDD3 / Fold change vs veh, RWDD3 / RFU, BCAT1 / Fold change vs veh, BCAT1 / RFU, EDEM3 / Fold change vs veh, EDEM3 / RFU, TMEM33 / Fold change vs veh, TMEM33 / RFU, WDR75 / Fold change vs veh, WDR75 / RFU, AHCTF1 / Fold change vs veh, AHCTF1 / RFU, TFRC / Fold change vs veh, TFRC / RFU, ZDHHC17 / Fold change vs veh, ZDHHC17 / RFU, NOM1 / Fold change vs veh, NOM1 / RFU, ARL8B / Fold change vs veh, ARL8B / RFU, ZBTB11 / Fold change vs veh, ZBTB11 / RFU, TAMM41 / Fold change vs veh, TAMM41 / RFU, KIAA1704 /// LOC100996395 / Fold change vs veh, KIAA1704 /// LOC100996395 / RFU, ING1 / Fold change vs veh, ING1 / RFU, TRMT61B / Fold change vs veh, TRMT61B / RFU, FUBP3 / Fold change vs veh, FUBP3 / RFU, TP53 / Fold change vs veh, TP53 / RFU, TNKS2 / Fold change vs veh, TNKS2 / RFU, ZFP14 / Fold change vs veh, ZFP14 / RFU, ACTR2 / Fold change vs veh, ACTR2 / RFU, PPP3R1 / Fold change vs veh, PPP3R1 / RFU, PIK3R1 / Fold change vs veh, PIK3R1 / RFU, HNRNPA1 / Fold change vs veh, HNRNPA1 / RFU, RNF170 / Fold change vs veh, RNF170 / RFU, ZNF28 / Fold change vs veh, ZNF28 / RFU, RNGTT / Fold change vs veh, RNGTT / RFU, OGT / Fold change vs veh, OGT / RFU, BRD1 / Fold change vs veh, BRD1 / RFU, MARS / Fold change vs veh, MARS / RFU, ZNF655 / Fold change vs veh, ZNF655 / RFU, FAHD1 / Fold change vs veh, FAHD1 / RFU, BDP1 / Fold change vs veh, BDP1 / RFU, LRRCC1 / Fold change vs veh, LRRCC1 / RFU, ARID1A / Fold change vs veh, ARID1A / RFU, ZNF146 / Fold change vs veh, ZNF146 / RFU, ZNF330 / Fold change vs veh, ZNF330 / RFU, GPN3 / Fold change vs veh, GPN3 / RFU, C9orf123 / Fold change vs veh, C9orf123 / RFU, N4BP2L2 / Fold change vs veh, N4BP2L2 / RFU, ARFIP1 / Fold change vs veh, ARFIP1 / RFU, FAM179B / Fold change vs veh, FAM179B / RFU, BCL10 / Fold change vs veh, BCL10 / RFU, UHRF1BP1L / Fold change vs veh, UHRF1BP1L / RFU, BET1 / Fold change vs veh, BET1 / RFU, CNOT2 / Fold change vs veh, CNOT2 / RFU, ZNF268 / Fold change vs veh, ZNF268 / Fold change vs veh, ZNF507 / RFU, DGCR2 / Fold change vs veh, DGCR2 / RFU, WDSUB1 / Fold change vs veh, WDSUB1 / Fold change vs veh, HSP90B1 /// MIR3652 / RFU, ADSS / Fold change vs veh, ADSS / RFU, GK / Fold change vs veh, GK / RFU, ZNF148 / Fold change vs veh, ZNF148 / RFU, TAF9 / Fold change vs veh, TAF9 / RFU, SLC1A5 / Fold change vs veh, SLC1A5 / RFU, SLMO2 / Fold change vs veh, SLMO2 / RFU, ABCC4 / Fold change vs veh, ABCC4 / RFU, LOC101060439 /// RAP1B / Fold change vs veh, LOC101060439 /// RAP1B / RFU, RFX7 / Fold change vs veh, RFX7 / RFU, GTPBP10 / Fold change vs veh, GTPBP10 / RFU, CNEP1R1 / Fold change vs veh, CNEP1R1 / RFU, BIVM-ERCC5 /// ERCC5 / Fold change vs veh, BIVM-ERCC5 /// ERCC5 / RFU, ILF3 / Fold change vs veh, ILF3 / RFU 11762660_at / Fold change /veh 11762660_at / RFU VCAN (11757783_s_at) / Fold change /veh VCAN (11757783_s_at) / RFU DDX43 (11728927_at) / Fold change /veh DDX43 (11728927_at) / RFU KRT8 (11758188_x_at) / Fold change /veh KRT8 (11758188_x_at) / RFU NKD1 (11759106_at) / Fold change /veh NKD1 (11759106_at) / RFU SRD5A1 (11742802_a_at) / Fold change /veh SRD5A1 (11742802_a_at) / RFU TPSAB1 /// TPSB2 (11721975_s_at) / Fold change /veh TPSAB1 /// TPSB2 (11721975_s_at) / RFU GSTM3 (11746129_a_at) / Fold change /veh GSTM3 (11746129_a_at) / RFU IL23R (11737362_x_at) / Fold change /veh IL23R (11737362_x_at) / RFU TMEM51 (11727254_a_at) / Fold change /veh TMEM51 (11727254_a_at) / RFU PIWIL2 (11732686_x_at) / Fold change /veh PIWIL2 (11732686_x_at) / RFU ORM1 (11744905_x_at) / Fold change /veh ORM1 (11744905_x_at) / RFU CCDC152 (11743942_at) / Fold change /veh CCDC152 (11743942_at) / RFU ECM1 (11717891_a_at) / Fold change /veh ECM1 (11717891_a_at) / RFU IL23R (11748794_a_at) / Fold change /veh IL23R (11748794_a_at) / RFU TNFAIP8L3 (11732012_x_at) / Fold change /veh TNFAIP8L3 (11732012_x_at) / RFU MBOAT4 (11741988_at) / Fold change /veh MBOAT4 (11741988_at) / RFU 11764193_at / Fold change /veh 11764193_at / RFU TMEM53 (11763286_at) / Fold change /veh TMEM53 (11763286_at) / RFU MAGEB2 (11727129_at) / Fold change /veh MAGEB2 (11727129_at) / RFU TMEM200A (11744735_a_at) / Fold change /veh TMEM200A (11744735_a_at) / RFU CCDC152 (11751479_a_at) / Fold change /veh CCDC152 (11751479_a_at) / RFU FAM211A (11726209_a_at) / Fold change /veh FAM211A (11726209_a_at) / RFU RGS16 (11746705_a_at) / Fold change /veh RGS16 (11746705_a_at) / RFU VCAN (11755009_s_at) / Fold change /veh VCAN (11755009_s_at) / RFU RHOB (11743442_s_at) / Fold change /veh RHOB (11743442_s_at) / RFU RGS16 (11720943_a_at) / Fold change /veh RGS16 (11720943_a_at) / RFU RGS16 (11720944_at) / Fold change /veh RGS16 (11720944_at) / RFU, VPS4B / Fold change vs veh, VPS4B / RFU, CREB1 / Fold change vs veh, CREB1 / RFU, DNAJC13 / Fold change vs veh, DNAJC13 / RFU, GNAQ / Fold change vs veh, GNAQ / RFU, CDK5R1 / Fold change vs veh, CDK5R1 / RFU, ZRANB3 / Fold change vs veh, ZRANB3 / RFU, CUL4A / Fold change vs veh, CUL4A / RFU, CCNY / Fold change vs veh, CCNY / RFU, UFL1 / Fold change vs veh, UFL1 / RFU, COG3 / Fold change vs veh, COG3 / RFU, DIAPH2 / Fold change vs veh, DIAPH2 / RFU, SKA2 / Fold change vs veh, SKA2 / RFU, AFF3 / Fold change vs veh, AFF3 / RFU, LMF1 / Fold change vs veh, LMF1 / RFU, IPO11 / Fold change vs veh, IPO11 / RFU, DFFB / Fold change vs veh, DFFB / RFU, FOXP1 / Fold change vs veh, FOXP1 / RFU, CARD8 / Fold change vs veh, CARD8 / RFU, STRN3 / Fold change vs veh, STRN3 / RFU, ADK / Fold change vs veh, ADK / RFU, RASSF2 / Fold change vs veh, RASSF2 / RFU, WIPF1 / Fold change vs veh, WIPF1 / RFU, LARP1B / Fold change vs veh, LARP1B / RFU, RASA1 / Fold change vs veh, RASA1 / RFU, RB1 / Fold change vs veh, RB1 / RFU, PPFIA1 / Fold change vs veh, PPFIA1 / RFU, MAT2A / Fold change vs veh, MAT2A / RFU, CCT5 / Fold change vs veh, CCT5 / RFU, WDR92 / Fold change vs veh, WDR92 / RFU, CUX1 / Fold change vs veh, CUX1 / RFU, TTC7A / Fold change vs veh, TTC7A / RFU, TMEM135 / Fold change vs veh, TMEM135 / RFU, DEPTOR / Fold change vs veh, DEPTOR / RFU, CPM / Fold change vs veh, CPM / RFU, DNAJB6 / Fold change vs veh, DNAJB6 / RFU, CACNA2D3 / Fold change vs veh, CACNA2D3 / RFU, DTX4 / Fold change vs veh, DTX4 / RFU, TFCP2 / Fold change vs veh, TFCP2 / RFU, GMCL1 /// GMCL1P1 / Fold change vs veh, GMCL1 /// GMCL1P1 / RFU, AEBP2 / Fold change vs veh, AEBP2 / RFU, SNHG1 /// SNORD22 /// SNORD25 /// SNORD26 /// SNORD27 /// SNORD28 /// SNORD29 /// SNORD31 / Fold change vs veh, SNHG1 /// SNORD22 /// SNORD25 /// SNORD26 /// SNORD27 /// SNORD28 /// SNORD29 /// SNORD31 / Fold change (Aza/veh), C12orf56 (ProbeSet 11735607_a_at) / Fold change (ACY-1035/veh), C12orf56 (ProbeSet 11735607_a_at) / Fold change (Aza/veh), FGFR1OP (ProbeSet 11751329_s_at) / Fold change (ACY-1035/veh), FGFR1OP (ProbeSet 11751329_s_at) / Fold change (Aza/veh), VPS36 (ProbeSet 11739960_a_at) / Fold change (ACY-1035/veh), VPS36 (ProbeSet 11739960_a_at) / RFU SYPL1 (11715823_x_at) / Fold change /veh SYPL1 (11715823_x_at) / RFU IGFBP7 (11715501_s_at) / Fold change /veh IGFBP7 (11715501_s_at) / RFU REEP3 (11722064_at) / Fold change /veh REEP3 (11722064_at) / RFU IGLL1 (11728026_x_at) / Fold change /veh IGLL1 (11728026_x_at): dose or concentration left out as unconfirmed
Conditions: MV-4-11 cells, 48 hours

Q: Nc1ncn([C@@H]2O[C@H](CO)[C@@H](O)[C@H]2O)c(=O)n1 [azacitidine] was tested. Which “Fold change /veh IL23R (11737362_x_at)” value did it give?
A: The value was 1.70.
